Assay results: patent US20260013501A1, “HERBICIDAL DERIVATIVES” (SYNGENTA CROP PROTECTION AG, priority 2022, published 2026)

Legend:
Format in all cases: in vivo
Conditions in all cases: evaluated after 13 days
[1] = system: Ipomoea hederacea (IPOHE); assay: Pre-emergence Test (Table B1), IPOHE
Zea mays (ZEAMX) [2] = assay: Pre-emergence Test (Table B1), ZEAMX
Zea mays (ZEAMX) [3] = assay: Post-emergence Test (Table B2), ZEAMX; parameters: key: 5-point damage scale: 5=81-100%, 4=61-80%, 3=41-60%, 2=21-40%, 1=0-20%
Protocol: Seeds of a variety of test species are sown in standard soil in pots (Ipomoea hederacea (IPOHE), Zea mays (ZEAMX), Echinochloa crus-galli (ECHCG), Amaranthus palmeri (AMAPA), (Amaranthus retoflexus (AMARE), and (Setaria faberi (SETFA)). After 8 days cultivation under controlled conditions in a glasshouse (at 24° C./16° C., day/night; 14 hours light; 65% humidity), the plants are sprayed with an aqueous spray solution derived from the formulation of the technical active ingredient in acetone/water (50:50) solution containing 0.5% Tween 20 (polyoxyethelyene sorbitan monolaurate, CAS RN 9005-64-5). Rate of application is shown in g/ha in the tables below. The test plants are then grown in a glasshouse under controlled conditions in a glasshouse (at 24° C./16° C., day/night; 14 hours light; 65% humidity) and watered twice daily. After 13 days the test is evaluated for the percentage damage caused to the plant. The biological activities are shown in the following table on a five-point scale (5=81-100%; 4=61-80%; 3=41-60%; 2=21-40%; 1=0-20%; -=not tested).

[4] = system: Amaranthus palmeri (AMAPA); assay: Pre-emergence Test (Table B1), AMAPA
[5] = system: Amaranthus retoflexus (AMARE); assay: Pre-emergence Test (Table B1), AMARE
[6] = system: Echinochloa crus-galli (ECHCG); assay: Pre-emergence Test (Table B1), ECHCG

CCn1c(Cc2cccc(F)c2)cc(=O)c(C(=O)O)c1-c1ccc(Cl)c(Cl)c1 [Compound 37, 2-(3,4-dichlorophenyl)-1-ethyl 6-[(3-fluorophenyl)methyl]-4-oxo-pyridine-3-carboxylic acid]
0: Pre-emergence Test, percentage damage caused to the plant (five-point scale), IPOHE ([1]; Rate 1000 g/Ha) | Pre-emergence Test, percentage damage caused to the plant (five-point scale), ZEAMX (Zea mays (ZEAMX) [2]; Rate 1000 g/Ha) | percentage damage caused to the plant, ZEAMX (Zea mays (ZEAMX) [3]; rate 1000 g/Ha) | Pre-emergence Test, percentage damage caused to the plant (five-point scale), AMAPA ([4]; Rate 1000 g/Ha) | Pre-emergence Test, percentage damage caused to the plant (five-point scale), AMARE ([5]; Rate 1000 g/Ha)

CCn1c(Cc2ccc(OC(F)(F)F)cc2C)cc(=O)c(C(=O)O)c1-c1ccc(Cl)c(Cl)c1 [Compound 63, 2-(3,4-dichlorophenyl)-1-ethyl-6-[[2-methyl-4-(trifluoromethoxy)phenyl]methyl]-4-oxo-pyridine-3-carboxylic acid]
0: Pre-emergence Test, percentage damage caused to the plant (five-point scale), IPOHE ([1]; Rate 1000 g/Ha) | Pre-emergence Test, percentage damage caused to the plant (five-point scale), ZEAMX (Zea mays (ZEAMX) [2]; Rate 1000 g/Ha) | Pre-emergence Test, percentage damage caused to the plant (five-point scale), AMAPA ([4]; Rate 1000 g/Ha) | Pre-emergence Test, percentage damage caused to the plant (five-point scale), AMARE ([5]; Rate 1000 g/Ha)

CCn1c(Cc2cc(OC)ncn2)cc(=O)c(C(=O)O)c1-c1ccc(Cl)c(Cl)c1 [Compound 100, 2-(3,4-dichlorophenyl)-1-ethyl-6-[(6-methoxypyrimidin-4-yl)methyl]-4-oxo-pyridine-3-carboxylic acid]
0: Pre-emergence Test, percentage damage caused to the plant (five-point scale), ECHCG ([6]; Rate 250 g/Ha) | Pre-emergence Test, percentage damage caused to the plant (five-point scale), ZEAMX (Zea mays (ZEAMX) [2]; Rate 250 g/Ha) | Pre-emergence Test, percentage damage caused to the plant (five-point scale), AMARE ([5]; Rate 250 g/Ha)

CCn1c(Cc2cc(C#N)ccn2)cc(=O)c(C(=O)O)c1-c1ccc(Cl)c(Cl)c1 [Compound 111, 6-[(4-cyano-2-pyridyl)methyl]-2-(3,4-dichlorophenyl)-1-ethyl-4-oxo-pyridine-3-carboxylic acid]
0: Pre-emergence Test, percentage damage caused to the plant (five-point scale), ECHCG ([6]; Rate 250 g/Ha)

CCn1c(Cc2cncc(F)c2)cc(=O)c(C(=O)O)c1-c1ccc(Cl)c(Cl)c1 [Compound 42, 2-(3,4-dichlorophenyl)-1-ethyl-6-[(5-fluoro-3-pyridyl)methyl]-4-oxo-pyridine-3-carboxylic acid]
0: Pre-emergence Test, percentage damage caused to the plant (five-point scale), ECHCG ([6]; Rate 250 g/Ha) | Pre-emergence Test, percentage damage caused to the plant (five-point scale), ZEAMX (Zea mays (ZEAMX) [2]; Rate 250 g/Ha) | percentage damage caused to the plant, ZEAMX (Zea mays (ZEAMX) [3]; rate 250 g/Ha) | Pre-emergence Test, percentage damage caused to the plant (five-point scale), AMAPA ([4]; Rate 250 g/Ha)

CCn1c(Cc2csnc2C)cc(=O)c(C(=O)O)c1-c1ccc(Cl)c(Cl)c1 [Compound 150, 2-(3,4-dichlorophenyl)-1-ethyl-6-[(3-methylisothiazol-4-yl)methyl]-4-oxo-pyridine-3-carboxylic acid]
0: Pre-emergence Test, percentage damage caused to the plant (five-point scale), IPOHE ([1]; Rate 250 g/Ha) | Pre-emergence Test, percentage damage caused to the plant (five-point scale), ZEAMX (Zea mays (ZEAMX) [2]; Rate 250 g/Ha) | percentage damage caused to the plant, ZEAMX (Zea mays (ZEAMX) [3]; rate 250 g/Ha)

CCn1c(Cc2ccc(SC)cc2)cc(=O)c(C(=O)O)c1-c1ccc(Cl)c(Cl)c1 [Compound 28, 2-(3,4-dichlorophenyl)-1-ethyl-6-[(4-methylsulfanylphenyl)methyl]-4-oxo-pyridine-3-carboxylic acid]
0: Pre-emergence Test, percentage damage caused to the plant (five-point scale), IPOHE ([1]; Rate 1000 g/Ha) | Pre-emergence Test, percentage damage caused to the plant (five-point scale), ZEAMX (Zea mays (ZEAMX) [2]; Rate 1000 g/Ha) | percentage damage caused to the plant, ZEAMX (Zea mays (ZEAMX) [3]; rate 1000 g/Ha) | Pre-emergence Test, percentage damage caused to the plant (five-point scale), AMAPA ([4]; Rate 1000 g/Ha) | Pre-emergence Test, percentage damage caused to the plant (five-point scale), AMARE ([5]; Rate 1000 g/Ha)

CCn1c(Cc2ccc(OC)c(F)c2)cc(=O)c(C(=O)O)c1-c1ccc(Cl)c(Cl)c1 [Compound 83, 2-(3,4-dichlorophenyl)-1-ethyl-6-[(3-fluoro-4-methoxy-phenyl)methyl]-4-oxo-pyridine-3-carboxylic acid]
0: Pre-emergence Test, percentage damage caused to the plant (five-point scale), IPOHE ([1]; Rate 1000 g/Ha) | Pre-emergence Test, percentage damage caused to the plant (five-point scale), ZEAMX (Zea mays (ZEAMX) [2]; Rate 1000 g/Ha) | Pre-emergence Test, percentage damage caused to the plant (five-point scale), AMAPA ([4]; Rate 1000 g/Ha) | Pre-emergence Test, percentage damage caused to the plant (five-point scale), AMARE ([5]; Rate 1000 g/Ha)

CCn1c(Cc2cc(C(F)(F)F)ccn2)cc(=O)c(C(=O)O)c1-c1ccc(Cl)c(Cl)c1 [Compound 18, 2-(3,4-dichlorophenyl)-1-ethyl-4-oxo-6-[[4-(trifluoromethyl)-2-pyridyl]methyl]pyridine-3-carboxylic acid]
0: Pre-emergence Test, percentage damage caused to the plant (five-point scale), ECHCG ([6]; Rate 1000 g/Ha)

CCn1c(Cc2ccnc(Cl)c2)cc(=O)c(C(=O)O)c1-c1ccc(Cl)c(Cl)c1 [Compound 41, 6-[(2-chloro-4-pyridyl)methyl]-2-(3,4-dichlorophenyl)-1-ethyl-4-oxo-pyridine-3-carboxylic acid]
0: Pre-emergence Test, percentage damage caused to the plant (five-point scale), ZEAMX (Zea mays (ZEAMX) [2]; Rate 250 g/Ha) | percentage damage caused to the plant, ZEAMX (Zea mays (ZEAMX) [3]; rate 250 g/Ha) | Pre-emergence Test, percentage damage caused to the plant (five-point scale), AMAPA ([4]; Rate 250 g/Ha) | Pre-emergence Test, percentage damage caused to the plant (five-point scale), AMARE ([5]; Rate 250 g/Ha)

CCOC(=O)c1cccc(Cc2cc(=O)c(C(=O)O)c(-c3ccc(Cl)c(Cl)c3)n2CC)n1 [Compound 102, 2-(3,4-dichlorophenyl)-6-[(6-ethoxycarbonylpyridin-1-ium-2-yl)methyl]-1-ehtyl-4-oxo-pyridine-3-carboxylic acid; 2,2,2-trifluoroacetate]
0: Pre-emergence Test, percentage damage caused to the plant (five-point scale), IPOHE ([1]; Rate 1000 g/Ha) | Pre-emergence Test, percentage damage caused to the plant (five-point scale), ZEAMX (Zea mays (ZEAMX) [2]; Rate 1000 g/Ha) | percentage damage caused to the plant, ZEAMX (Zea mays (ZEAMX) [3]; rate 1000 g/Ha) | Pre-emergence Test, percentage damage caused to the plant (five-point scale), AMAPA ([4]; Rate 1000 g/Ha) | Pre-emergence Test, percentage damage caused to the plant (five-point scale), AMARE ([5]; Rate 1000 g/Ha)

CCn1c(Cc2ccsc2)cc(=O)c(C(=O)O)c1-c1ccc(Cl)c(Cl)c1 [Compound 51, 2-(3,4-dichlorophenyl)-1-ethyl-4-oxo-6-(3-thienylmethyl) pyridine-3-carboxylic acid]
0: Pre-emergence Test, percentage damage caused to the plant (five-point scale), IPOHE ([1]; Rate 1000 g/Ha) | Pre-emergence Test, percentage damage caused to the plant (five-point scale), ZEAMX (Zea mays (ZEAMX) [2]; Rate 1000 g/Ha) | Pre-emergence Test, percentage damage caused to the plant (five-point scale), AMAPA ([4]; Rate 1000 g/Ha) | Pre-emergence Test, percentage damage caused to the plant (five-point scale), AMARE ([5]; Rate 1000 g/Ha)

CCn1c(Cc2cc(C)ncn2)cc(=O)c(C(=O)O)c1-c1ccc(Cl)c(Cl)c1 [Compound 128, 2-(3,4-dichlorophenyl)-1-ethyl-6-[(6-methylpyrimidin-4-yl)methyl]-4-oxo-pyridine-3-carboxylic acid]
0: Pre-emergence Test, percentage damage caused to the plant (five-point scale), ECHCG ([6]; Rate 250 g/Ha) | Pre-emergence Test, percentage damage caused to the plant (five-point scale), ZEAMX (Zea mays (ZEAMX) [2]; Rate 250 g/Ha) | percentage damage caused to the plant, ZEAMX (Zea mays (ZEAMX) [3]; rate 250 g/Ha)

CCn1c(Cc2cc(COC)cc(Cl)n2)cc(=O)c(C(=O)O)c1-c1ccc(Cl)c(Cl)c1 [Compound 103, 6-[[6-chloro-4-(methoxymethyl)-2-pyridyl]methyl]-2-(3,4-dichlorophenyl)-1-ethyl-4-oxo-pyridine-3-carboxylic acid]
0: Pre-emergence Test, percentage damage caused to the plant (five-point scale), IPOHE ([1]; Rate 1000 g/Ha) | Pre-emergence Test, percentage damage caused to the plant (five-point scale), ZEAMX (Zea mays (ZEAMX) [2]; Rate 1000 g/Ha) | Pre-emergence Test, percentage damage caused to the plant (five-point scale), AMAPA ([4]; Rate 1000 g/Ha) | Pre-emergence Test, percentage damage caused to the plant (five-point scale), AMARE ([5]; Rate 1000 g/Ha)

CCn1c(Cc2nccnc2C(=O)O)cc(=O)c(C(=O)O)c1-c1ccc(Cl)c(Cl)c1 [Compound 49, 3-[[5-carboxy-6-(3,4-dichlorophenyl)-1-ethyl-4-oxo-2-pyridyl]methyl]pyrazine-2-carboxylic acid]
0: Pre-emergence Test, percentage damage caused to the plant (five-point scale), IPOHE ([1]; Rate 250 g/Ha) | Pre-emergence Test, percentage damage caused to the plant (five-point scale), ZEAMX (Zea mays (ZEAMX) [2]; Rate 250 g/Ha) | Pre-emergence Test, percentage damage caused to the plant (five-point scale), AMARE ([5]; Rate 250 g/Ha)

CCn1c(Cc2cnc(Cl)cn2)cc(=O)c(C(=O)O)c1-c1ccc(Cl)c(Cl)c1 [Compound 143, 6-[(5-chloropyrazin-2-yl)methyl]-2-(3,4-dichlorophenyl)-1-ethyl-4-oxo-pyridine-3-carboxylic acid]
0: Pre-emergence Test, percentage damage caused to the plant (five-point scale), ECHCG ([6]; Rate 250 g/Ha) | Pre-emergence Test, percentage damage caused to the plant (five-point scale), ZEAMX (Zea mays (ZEAMX) [2]; Rate 250 g/Ha) | percentage damage caused to the plant, ZEAMX (Zea mays (ZEAMX) [3]; rate 250 g/Ha) | Pre-emergence Test, percentage damage caused to the plant (five-point scale), AMAPA ([4]; Rate 250 g/Ha)
